According to patent publication US10968260B2, “Curcumin-peptide conjugates and formulations thereof” (HAUS BIOCEUTICALS, INC., priority 2014, dated 2021):

Legend:
[1] = system: advanced Alzheimer's disease; test: Clinical case study: Alzheimer's disease (Example 5); format: in vivo, human; conditions: Case 20, 1.2 g curcumin bid, after 30 days
Excerpt: A person was presented with advanced Alzheimer's disease. Prior to dosing, they failed all short term memory questions on a test. […] They have continued to have lasting benefit from the therapy.

[2] = design: species or system mice; conditions: mouse, in vivo
Protocol: Mice weighed ˜25 g each. Blood was drawn every 30 minutes for 180 total minutes.

COc1cc(C=CC(=O)CC(=O)C=Cc2ccc(O)c(OC)c2)ccc1O [curcumin, 1,7-bis[4-hydroxy-3-methoxyphenyl]-1,6-heptadiene-3,5-dione]
short term memory questions on a test, advanced Alzheimer's disease [1]: passed all short term memory questions | absorbability / bioavailability [2]: very poor absorbability
